According to US20080032940A1, “METHODS FOR REDUCING ANTHRACYCLINE-INDUCED TOXICITY” (priority 2006, published 2008):
One block for each compound: values may come before it.

Tests used:
caspase-3 = experiment: Caspase-3 activity in heart tissues of DOX-treated rats; format: in vivo, rat; settings: DOX treatment
Description: Caspase-3 Activity: Caspase-3 activity was measured with acetyl Asp-Glu-Val-Asp 7-amido-4-methlylcoumarin (Ac-DEVD-AFC), as described in a kit from Sigma Aldrich (St. Louis, Mo.). Caspase-3 hydrolyzes Ac-DEVD-AFC to release a fluorescent moiety, 7-amino-4-methylcoumarin (AMC). Briefly, treated cells were suspended in 100 μl of lysis buffer and passed through a 24-gauge needle 10 times to ensure complete lysis. The resulting lysate was centrifuged at 4° C. at 10,000 rmp. 50 μl of clear supernatant was used for the activity assay. […] The excitation and emission wavelengths of AMC are 360 nm and 460 nm respectively.
(§1) In a first set of experiments, male Sprague Dawley rats were divided into the following four treatment groups: (1) PBS control; (2) MitoQ (5 mg/kg, i.p., twice per week); (3) DOX (2.5 mg/kg, i.v.); and (4) DOX plus MitoQ (2.5 mg/kg DOX and 5 mg/kg MitoQ, both i.p.). All agents were administered in PBS for ten weeks. At weeks four, eight, ten and twelve, cardiac function tests were performed. Following the treatments, the rats were sacrificed and hearts were removed for histochemical and biochemical analysis. See FIG. 8 for treatment protocol
Caspase-3 was determined as described above in Example 3.

male Sprague Dawley rats = experiment: Echocardiography in DOX-treated rats (cardiac function test); format: in vivo, rat
Description: as §1
In a second set of experiments, a different mitochondria-target antioxidant was assessed, Mito-TEMPOL. Male Sprague Dawley rats were divided into the following four treatment groups: (1) PBS control; (2) Mito-TEMPOL (5 mg/kg, i.p., twice per week); (3) DOX (2.5 mg/kg, i.v.); and (4) DOX plus Mito-TEMPOL (2.5 mg/kg and 5 mg/kg Mito-TEMPOL, both i.p.). All agents were administered in PBS for ten weeks. At weeks four, eight, ten and twelve, cardiac function tests were performed. Following treatment, the rats were sacrificed and hearts were removed for histochemical and biochemical analysis.
Cardiac Function Test: Echocardiography was performed at baseline, four, eight, ten and twelve weeks following the start of treatment. Rats were anesthetized with a mixture of ketamine (75 mg/kg) and medotomidine (0.25 mg/kg). Once anesthetized, the chest was shaved and cardiac rhythm monitored using three limb leads attached to a Vivid 7 from General Electric (Waukesha, Wis.) and a M12L linear array probe.
2-D B mode imaging parameters were as follows: (1) depth, 2.5 cm.; (2) frame rate, 230 frames/second; and (3) second harmonic imaging. For the primary endpoint data, the standard short axis view at the mid-ventricular level were used. Because of the serial nature of comparative measurements, co-registration at this level was ensured by the use of papillary muscles as localizers and obtaining a circular left ventricular slice. Other standard views obtained induced short axis apical slices and short axis basal slices at the mitral valve. […] In addition, Q analysis software (General Electric) of the B mode echo images was used to measure regional radial and circumferential strain. Furthermore, diastolic function was monitored by using pulsed Doppler of the mitral inflow and aortic outflow regions in a standard apical four chamber/five chamber view, as was mitral E wave, A wave, isovolumic relaxation time and mitral E deceleration time.

laboratory animals = settings: in vivo; cited from earlier work
[1] = system: isolated cardiomyocytes and isolated hearts; settings: cited from earlier work
[2] = system: tumor cell lines (LnCAP, MCF-7, SH-SY5Y and MDA-MB-231); experiment: MTT assay, toxicity in tumor cell lines; format: cell-based, human; settings: 10 μM, MCF-7 and SH-SY5Y
Text: In contrast, four tumor cell lines were used herein. The first tumor cell line was a human neuroblastoma cell line, SH-SY5Y, from American Type Culture Collection (ATCC; Rockville, Md.). The second tumor cell line was a human prostate cancer cell line, LnCAP, from ATCC. The third tumor cell line was a human breast cancer cell line, MCF-7, from ATCC. The fourth tumor cell line was a human metastatic breast cancer cell line, MDA-MB-231 from ATCC.
(§2) In a first set of experiments, a dose-response curve to MitoQ was measured in each of the six cell lines described above. Briefly, cells were treated with various concentrations of MitoQ for twenty-four hours. Following treatment, cellular toxicity was measured by a MTT assay as described below.
In a third set of experiments, each of the six cell lines described above were subjected to the following treatments: (1) 10 μM MitoQ; (2) 10 μM CoQ (MitoQ without the phosphonium, which served as a control); and (3) 10 μM triphenylphosphonium (TPP; MitoQ without the ubiquinone or the ubquinol moiety, which also served as a control). Following treatment, cellular toxicity was measured by the MTT assay. […]

[3] = system: bovine aortic endothelial cells (BAEC); experiment: MTT assay, toxicity in normal cells BAEC; format: cell-based; settings: 10 μM; BAECs
Description: (§3) Cell lines: Two normal cell lines were used herein. The first normal cell line was a rat-derived embryonic cardiomyocyte cell line, H9c2, from […] (Manassas, Va.; Catalog No. CRL-1446). The second normal cell line was BAECs from Clonetics Corp. (San Diego, Calif.).
as §2
(§4) In a third set of experiments, each of the six cell lines described above were subjected to the following treatments: (1) 10 μM MitoQ; (2) 10 μM CoQ (MitoQ without the phosphonium, which served as a control); and (3) 10 μM triphenylphosphonium (TPP; MitoQ without the ubiquinone or the ubquinol moiety, which also served as a control). Following treatment, cellular toxicity was measured by the MTT assay.
(§5) MTT Assay: An MIT assay was performed to examine MitoQ's toxicity on normal cells and tumor cells (see Mosmann T, “Rapid colorimetric assay for cellular growth and survival: Application to proliferation and cytotoxicity assays,” J. Immunol. Meth. 65:55-63 (1983)). […] Formazon crystals formed cells were solubilized by adding 200 μl of 0.1N HCl in isopropanol, and absorbance was measured at 570 nm.

H9c2 cells = experiment: MTT assay, toxicity in normal cells H9c2; format: cell-based, rat; settings: 10 μM
Description: as §3, §2, §4, §5

caspase activity in heart tissues (caspase-3): increased with increasing DOX treatment
decrease of fractional shortening versus control (male Sprague Dawley rats; DOX 2.5 mg/kg, rats): 18%
decrease of radial strain versus control (male Sprague Dawley rats; DOX 2.5 mg/kg, rats): 35%
Compound: COc1cccc2c1C(=O)c1c(O)c3c(c(O)c1C2=O)C[C@@](O)(C(=O)CO)C[C@@H]3O[C@H]1C[C@H](N)[C@H](O)[C@H](C)O1 [DOX, doxorubicin]

Compound: CC(=O)N[C@@H](CS)C(=O)O [N-acetylcysteine]
efficacy against DOX cardiotoxicity in animals (laboratory animals): limited efficacy

Compound: Cc1c(C)c2c(c(C)c1O)CC[C@@](C)(CCC[C@H](C)CCC[C@H](C)CCCC(C)C)O2 [α-tocopherol]
efficacy against DOX cardiotoxicity in animals (laboratory animals): limited efficacy

Compound: coenzyme Q [CoQ]
efficacy against DOX cardiotoxicity in animals (laboratory animals): not as effective
effect on DOX-induced toxicity [1]: reversed DOX-induced toxicity
toxicity (MTT), FIG. 4 [2]: not toxic
DOX-induced cardiomyopathy (echocardiograms, FIG. 9A) (male Sprague Dawley rats; after 12 weeks of DOX treatment): not
protection of left ventricular function and fractional shortening against DOX cardiotoxicity (male Sprague Dawley rats; co-administered with DOX, echocardiography): did not significantly protect

Compound: triphenylphosphonium [TPP, reference compound]
toxicity (MTT), FIG. 4 [3]: not toxic
toxicity (MTT), FIG. 4 (H9c2 cells): not toxic
toxicity (MTT), FIG. 4 [2]: not toxic
